Key:
[1] = Glutathione (GSH) stability assay (HPLC); settings: glutathione (GSH, 5 mM) in MeCN/PBS buffer
Protocol: The reaction temperature was chosen to be 40 °C.
Glutathione (GSH) Stability Assay
• 0 min: 40% MeOH, 60% phosphate buffer pH 2.3;
• 20 min: 85% MeOH, 15% phosphate buffer pH 2.3;
• 9 min: 95% MeOH, 5% phosphate buffer pH 2.3;
• 10 min: 95% MeOH, 5% phosphate buffer pH 2.3;

[2] = target: T1, S6K2 (Homo sapiens, UniProt Q9UBS0); assay: HotSpot kinase assay (Reaction Biology); assay type: biochemical; settings: apparent IC50; five-point; compound 2 triplicate, ± standard deviation
T1 construct: purchased Reaction Biology Corp
Protocol: The provided IC50 values were measured using the HotSpot^TM Kinase Profiling assay and conducted at Reaction Biology Corp. in their facilities in Malvern, PA, USA.

[3] = system: S6K2; set-up: method as in PMID 20704563; settings: cited from earlier work
[4] = system: S6K1; settings: cited from earlier work
[5] = target: T2, WNK1 (Homo sapiens, UniProt Q9H4A3); assay: DSF thermal shift assay; assay type: binding; settings: read-out: ΔTm
T2 construct: purchased in-house DSF (thermal shift) panel per Fedorov et al
Protocol: (§1) Differences in the melting temperature (ΔTm) were measured as described by Fedorov et al.. Purified proteins were buffered in 25 mM HEPES (pH 7.5), 500 mM NaCl and were assayed in a 384-well plate with a final protein concentration of 2 μM in 10 μL assay volume. Inhibitors were added to a final concentration of 10 μM using an ECHO 550 acoustic dispenser (Labcyte, San José, CA, USA). As a fluorescence probe, SYPRO-Orange (Molecular Probes, Eugene, OR, USA) was added in a 1:5000 dilution. Filters for excitation and emission were set to 465 nm and 590 nm, respectively. The temperature was increased from 25 °C with 3 °C/min to a final temperature of 95 °C, while scanning, using the QuantStudio5 (Applied Biosystems, Waltham, MA, USA). Data were analyzed through Boltzmann equation in the Protein Thermal Shift software (Applied Biosystems, Waltham, MA, USA). Samples were measured in technical duplicates.

[6] = target: T3, CDC42BPA (Homo sapiens, UniProt Q5VT25); assay: DSF thermal shift assay; assay type: binding; settings: read-out: ΔTm
T3 construct: purchased in-house DSF (thermal shift) panel per Fedorov et al
Protocol: as §1

[7] = target: T4, NEK2 (Homo sapiens, UniProt P51955); assay: DSF thermal shift assay; assay type: binding; settings: read-out: ΔTm
T4 construct: purchased in-house DSF (thermal shift) panel per Fedorov et al
Protocol: as §1

[8] = target: T5, OSR1 (Homo sapiens, UniProt O95747); assay: DSF thermal shift assay; assay type: binding; settings: read-out: ΔTm
T5 construct: purchased in-house DSF (thermal shift) panel per Fedorov et al
T5 sequence (O95747 whole entry): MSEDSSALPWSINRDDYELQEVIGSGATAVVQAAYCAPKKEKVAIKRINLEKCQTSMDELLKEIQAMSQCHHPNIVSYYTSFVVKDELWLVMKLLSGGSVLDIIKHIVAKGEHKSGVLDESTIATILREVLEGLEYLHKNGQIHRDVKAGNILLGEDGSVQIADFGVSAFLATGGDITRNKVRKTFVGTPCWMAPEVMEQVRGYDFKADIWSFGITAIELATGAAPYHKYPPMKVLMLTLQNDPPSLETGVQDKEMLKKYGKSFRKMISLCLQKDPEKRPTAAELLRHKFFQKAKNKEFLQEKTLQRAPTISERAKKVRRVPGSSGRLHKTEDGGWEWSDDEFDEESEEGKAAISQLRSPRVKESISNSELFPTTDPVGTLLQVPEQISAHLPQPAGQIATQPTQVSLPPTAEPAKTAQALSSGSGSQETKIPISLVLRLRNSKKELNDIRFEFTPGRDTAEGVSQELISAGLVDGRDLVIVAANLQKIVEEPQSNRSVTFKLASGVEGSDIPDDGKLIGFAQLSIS
Protocol: as §1

[9] = target: T6, PAK1 (Homo sapiens, UniProt Q13153); assay: DSF thermal shift assay; assay type: binding; settings: read-out: ΔTm
T6 construct: purchased in-house DSF (thermal shift) panel per Fedorov et al
Protocol: as §1

[10] = target: T7, MERTK (Homo sapiens, UniProt Q12866); assay: DSF thermal shift assay; assay type: binding; settings: read-out: ΔTm
T7 construct: purchased in-house DSF (thermal shift) panel per Fedorov et al
T7 sequence (Q12866 21-999): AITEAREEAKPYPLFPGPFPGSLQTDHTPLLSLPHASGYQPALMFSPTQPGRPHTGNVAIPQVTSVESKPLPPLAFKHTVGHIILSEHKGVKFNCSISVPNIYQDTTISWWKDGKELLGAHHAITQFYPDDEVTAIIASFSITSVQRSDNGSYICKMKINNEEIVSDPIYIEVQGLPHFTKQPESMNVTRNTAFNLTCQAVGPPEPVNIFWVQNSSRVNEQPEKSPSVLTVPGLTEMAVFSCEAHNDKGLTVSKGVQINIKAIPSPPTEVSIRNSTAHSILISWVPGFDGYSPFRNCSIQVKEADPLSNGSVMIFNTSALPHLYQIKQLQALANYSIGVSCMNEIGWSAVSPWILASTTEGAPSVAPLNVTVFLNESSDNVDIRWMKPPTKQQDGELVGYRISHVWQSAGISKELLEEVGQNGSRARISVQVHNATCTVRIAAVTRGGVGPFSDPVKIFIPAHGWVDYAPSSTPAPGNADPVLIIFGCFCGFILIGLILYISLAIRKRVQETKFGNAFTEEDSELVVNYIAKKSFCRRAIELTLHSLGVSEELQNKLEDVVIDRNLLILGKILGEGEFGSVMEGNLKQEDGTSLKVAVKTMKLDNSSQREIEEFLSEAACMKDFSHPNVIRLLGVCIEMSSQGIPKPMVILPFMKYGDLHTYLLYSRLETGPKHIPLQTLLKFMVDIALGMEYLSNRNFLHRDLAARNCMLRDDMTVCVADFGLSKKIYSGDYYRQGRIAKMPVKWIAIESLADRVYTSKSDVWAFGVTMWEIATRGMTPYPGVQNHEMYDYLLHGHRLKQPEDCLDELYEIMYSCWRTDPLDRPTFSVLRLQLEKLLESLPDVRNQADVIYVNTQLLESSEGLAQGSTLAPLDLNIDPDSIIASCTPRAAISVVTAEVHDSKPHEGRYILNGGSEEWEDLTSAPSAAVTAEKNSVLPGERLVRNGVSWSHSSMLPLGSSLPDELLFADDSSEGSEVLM
Protocol: as §1

[11] = target: T8, STK10 (Homo sapiens, UniProt O94804); assay: DSF thermal shift assay; assay type: binding; settings: read-out: ΔTm
T8 construct: purchased in-house DSF (thermal shift) panel per Fedorov et al
T8 sequence (O94804 whole entry): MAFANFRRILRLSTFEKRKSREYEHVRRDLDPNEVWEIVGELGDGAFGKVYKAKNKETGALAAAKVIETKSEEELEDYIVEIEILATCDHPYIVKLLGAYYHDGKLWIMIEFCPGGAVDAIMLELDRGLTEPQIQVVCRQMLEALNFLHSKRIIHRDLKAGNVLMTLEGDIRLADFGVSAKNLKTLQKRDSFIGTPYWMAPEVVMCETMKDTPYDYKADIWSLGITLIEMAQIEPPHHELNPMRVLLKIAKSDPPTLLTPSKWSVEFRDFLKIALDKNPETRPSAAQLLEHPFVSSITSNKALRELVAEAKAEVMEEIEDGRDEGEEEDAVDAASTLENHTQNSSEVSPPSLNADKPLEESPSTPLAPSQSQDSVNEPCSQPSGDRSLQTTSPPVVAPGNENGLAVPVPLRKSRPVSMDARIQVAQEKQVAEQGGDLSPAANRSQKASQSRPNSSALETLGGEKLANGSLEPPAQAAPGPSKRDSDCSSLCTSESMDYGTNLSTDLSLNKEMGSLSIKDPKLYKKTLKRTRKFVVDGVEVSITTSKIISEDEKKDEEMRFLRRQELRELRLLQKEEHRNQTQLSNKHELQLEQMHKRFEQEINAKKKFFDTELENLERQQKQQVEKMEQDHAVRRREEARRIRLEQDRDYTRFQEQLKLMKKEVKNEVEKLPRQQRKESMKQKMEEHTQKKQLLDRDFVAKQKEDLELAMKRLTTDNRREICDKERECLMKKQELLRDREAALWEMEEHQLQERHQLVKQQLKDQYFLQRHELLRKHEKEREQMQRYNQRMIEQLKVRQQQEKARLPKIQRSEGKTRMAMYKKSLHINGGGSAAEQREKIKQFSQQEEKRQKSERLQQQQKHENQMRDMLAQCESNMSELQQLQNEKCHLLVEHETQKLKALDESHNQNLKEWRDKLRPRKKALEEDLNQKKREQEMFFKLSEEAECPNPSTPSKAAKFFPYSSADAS
Protocol: as §1

[12] = target: T9, STK3 (Homo sapiens, UniProt Q13188); assay: DSF thermal shift assay; assay type: binding; settings: read-out: ΔTm
T9 construct: purchased in-house DSF (thermal shift) panel per Fedorov et al
Protocol: as §1

[13] = target: T10, CAMKK2 (Homo sapiens, UniProt Q96RR4); assay: DSF thermal shift assay; assay type: binding; settings: read-out: ΔTm
T10 construct: purchased in-house DSF (thermal shift) panel per Fedorov et al
T10 sequence (Q96RR4 whole entry): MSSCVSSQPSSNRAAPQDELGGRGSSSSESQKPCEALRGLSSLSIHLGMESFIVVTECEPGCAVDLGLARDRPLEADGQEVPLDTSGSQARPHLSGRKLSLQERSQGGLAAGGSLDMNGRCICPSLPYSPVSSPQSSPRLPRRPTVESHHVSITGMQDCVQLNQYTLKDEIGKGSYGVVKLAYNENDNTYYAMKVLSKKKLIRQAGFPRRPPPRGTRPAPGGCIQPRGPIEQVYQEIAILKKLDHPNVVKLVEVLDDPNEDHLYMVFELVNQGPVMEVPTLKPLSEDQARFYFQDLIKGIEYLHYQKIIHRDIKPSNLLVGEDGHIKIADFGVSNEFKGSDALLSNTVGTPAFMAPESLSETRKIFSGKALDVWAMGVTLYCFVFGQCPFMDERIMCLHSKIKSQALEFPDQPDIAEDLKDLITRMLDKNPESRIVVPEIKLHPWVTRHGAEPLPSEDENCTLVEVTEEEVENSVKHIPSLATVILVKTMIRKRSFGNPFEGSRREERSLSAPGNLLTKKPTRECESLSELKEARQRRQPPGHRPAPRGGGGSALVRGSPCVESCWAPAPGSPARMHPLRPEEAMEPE
Protocol: as §1

[14] = target: T11, MAPK13 (Homo sapiens, UniProt O15264); assay: DSF thermal shift assay; assay type: binding; settings: read-out: ΔTm
T11 construct: purchased in-house DSF (thermal shift) panel per Fedorov et al
Protocol: as §1

[15] = target: T12, RPS6K5 (Homo sapiens, UniProt O75582); assay: DSF thermal shift assay; assay type: binding; settings: read-out: ΔTm
T12 construct: purchased in-house DSF (thermal shift) panel per Fedorov et al
Protocol: as §1

[16] = target: T13, SLK (Homo sapiens, UniProt Q9H2G2); assay: DSF thermal shift assay; assay type: binding; settings: read-out: ΔTm
T13 construct: purchased in-house DSF (thermal shift) panel per Fedorov et al
Protocol: as §1

[17] = target: T14, CAMK4 (Homo sapiens, UniProt Q16566); assay: DSF thermal shift assay; assay type: binding; settings: read-out: ΔTm
T14 construct: purchased in-house DSF (thermal shift) panel per Fedorov et al
T14 sequence (Q16566 whole entry): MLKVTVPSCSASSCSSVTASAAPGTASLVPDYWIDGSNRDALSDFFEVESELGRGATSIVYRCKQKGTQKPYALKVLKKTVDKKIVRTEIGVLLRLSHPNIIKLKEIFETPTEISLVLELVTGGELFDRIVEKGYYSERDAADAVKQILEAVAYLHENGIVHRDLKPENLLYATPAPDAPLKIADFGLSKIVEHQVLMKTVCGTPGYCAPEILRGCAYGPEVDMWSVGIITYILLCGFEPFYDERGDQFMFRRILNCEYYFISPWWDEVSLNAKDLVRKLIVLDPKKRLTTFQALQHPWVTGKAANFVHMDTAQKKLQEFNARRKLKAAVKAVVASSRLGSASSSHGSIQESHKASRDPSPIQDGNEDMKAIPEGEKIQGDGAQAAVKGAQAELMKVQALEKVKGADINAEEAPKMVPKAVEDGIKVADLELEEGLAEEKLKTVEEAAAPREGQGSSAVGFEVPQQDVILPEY
Protocol: as §1

[18] = target: T15, MAPK6 (Homo sapiens, UniProt Q16659); assay: DSF thermal shift assay; assay type: binding; settings: read-out: ΔTm
T15 construct: purchased in-house DSF (thermal shift) panel per Fedorov et al
Protocol: as §1

[19] = target: T16, STK39 (Homo sapiens, UniProt Q9UEW8); assay: DSF thermal shift assay; assay type: binding; settings: read-out: ΔTm
T16 construct: purchased in-house DSF (thermal shift) panel per Fedorov et al; IC50 follow-up at Reaction Biology Corp
Protocol: as §1

[20] = target: T17, DAPK1 (Homo sapiens, UniProt P53355); assay: DSF thermal shift assay; assay type: binding; settings: read-out: ΔTm
T17 construct: purchased in-house DSF (thermal shift) panel per Fedorov et al
Protocol: as §1

[21] = target: T18, DCAMKL1 (Homo sapiens, UniProt O15075); assay: DSF thermal shift assay; assay type: binding; settings: read-out: ΔTm
T18 construct: purchased in-house DSF (thermal shift) panel per Fedorov et al
Protocol: as §1

[22] = target: T19, EPHB3 (Homo sapiens, UniProt P54753); assay: DSF thermal shift assay; assay type: binding; settings: read-out: ΔTm
T19 construct: purchased in-house DSF (thermal shift) panel per Fedorov et al
Protocol: as §1

[23] = target: T20, PLK4 (Homo sapiens, UniProt O00444); assay: DSF thermal shift assay; assay type: binding; settings: read-out: ΔTm
T20 construct: purchased in-house DSF (thermal shift) panel per Fedorov et al
T20 sequence (O00444 whole entry): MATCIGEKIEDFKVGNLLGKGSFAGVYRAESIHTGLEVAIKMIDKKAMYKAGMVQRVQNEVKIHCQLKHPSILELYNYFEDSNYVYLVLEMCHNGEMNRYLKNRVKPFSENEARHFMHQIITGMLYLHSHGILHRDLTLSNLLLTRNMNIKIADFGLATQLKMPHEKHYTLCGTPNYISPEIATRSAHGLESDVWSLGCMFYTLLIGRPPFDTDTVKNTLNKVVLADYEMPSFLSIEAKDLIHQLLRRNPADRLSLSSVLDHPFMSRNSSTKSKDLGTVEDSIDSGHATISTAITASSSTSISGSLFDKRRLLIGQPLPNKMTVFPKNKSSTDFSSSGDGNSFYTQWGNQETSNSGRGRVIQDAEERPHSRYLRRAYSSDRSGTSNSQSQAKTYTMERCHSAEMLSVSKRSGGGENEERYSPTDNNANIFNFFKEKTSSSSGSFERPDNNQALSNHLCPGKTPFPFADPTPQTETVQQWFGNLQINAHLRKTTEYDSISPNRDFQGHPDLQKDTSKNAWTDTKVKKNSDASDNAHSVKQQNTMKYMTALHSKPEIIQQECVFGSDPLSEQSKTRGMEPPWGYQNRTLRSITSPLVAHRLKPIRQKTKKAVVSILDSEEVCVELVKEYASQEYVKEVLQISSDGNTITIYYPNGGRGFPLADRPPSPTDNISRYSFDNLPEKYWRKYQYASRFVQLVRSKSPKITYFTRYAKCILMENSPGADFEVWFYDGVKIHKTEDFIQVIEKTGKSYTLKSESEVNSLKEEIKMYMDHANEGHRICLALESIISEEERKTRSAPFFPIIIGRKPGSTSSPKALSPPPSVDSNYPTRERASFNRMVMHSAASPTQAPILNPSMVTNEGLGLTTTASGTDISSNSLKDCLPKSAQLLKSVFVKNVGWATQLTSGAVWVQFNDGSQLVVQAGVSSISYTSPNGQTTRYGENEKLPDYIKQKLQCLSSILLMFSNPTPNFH
Protocol: as §1

[24] = target: T21, EPHA7 (Homo sapiens, UniProt Q15375); assay: DSF thermal shift assay; assay type: binding; settings: read-out: ΔTm
T21 construct: purchased in-house DSF (thermal shift) panel per Fedorov et al
Protocol: as §1

T1 sequence (Q9UBS0 whole entry): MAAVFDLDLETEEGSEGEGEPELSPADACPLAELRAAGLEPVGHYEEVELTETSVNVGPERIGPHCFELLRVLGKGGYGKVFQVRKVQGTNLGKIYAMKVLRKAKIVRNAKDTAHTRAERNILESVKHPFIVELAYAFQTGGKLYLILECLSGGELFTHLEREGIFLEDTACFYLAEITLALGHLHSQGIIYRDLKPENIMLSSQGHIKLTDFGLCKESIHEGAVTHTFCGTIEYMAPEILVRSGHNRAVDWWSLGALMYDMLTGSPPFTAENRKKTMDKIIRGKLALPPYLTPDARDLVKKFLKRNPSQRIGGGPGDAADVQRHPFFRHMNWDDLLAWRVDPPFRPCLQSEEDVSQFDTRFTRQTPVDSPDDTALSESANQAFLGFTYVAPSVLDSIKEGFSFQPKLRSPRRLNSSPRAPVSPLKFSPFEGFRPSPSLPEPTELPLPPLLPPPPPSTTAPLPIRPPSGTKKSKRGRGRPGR

CN(C)C/C=C/C(=O)Nc1cc2c(Nc3ccc(F)c(Cl)c3)ncnc2cc1O[C@H]1CCOC1 [Afatinib]
half-life at […] [1]: 5 h

CCc1cnc(Nc2ncccc2[N+](=O)[O-])nc1N1CCN(Cc2nc3cc(C(F)(F)F)ccc3[nH]2)CC1 [Compound 21]
IC50 [2]: > 5000 nM

CCc1cncnc1N1CCN(Cc2nc3ccc(C(F)(F)F)cc3[nH]2)CC1 [PF-4708671]
IC50 [3]: 65000 nM
IC50 [4]: 160 nM
Ki [4]: 20 nM

CN[C@@H]1C[C@H]2O[C@@](C)([C@@H]1OC)n1c3ccccc3c3c4c(c5c6ccccc6n2c5c31)C(=O)NC4 [Staurosporine, reference compound]
ΔTm at 10 µM [5]: 1.4 °C
ΔTm at 10 µM [6]: 2.2 °C
ΔTm at 10 µM [7]: 2.2 °C
ΔTm at 10 µM [8]: 7.6 °C
ΔTm at 10 µM [9]: 7.4 °C
ΔTm at 10 µM [10]: 5.9 °C
ΔTm at 10 µM [11]: 24.4 °C
ΔTm at 10 µM [12]: 14.8 °C
ΔTm at 10 µM [13]: 25.1 °C
ΔTm at 10 µM [14]: 6.2 °C
ΔTm at 10 µM [15]: 15 °C
ΔTm at 10 µM [16]: 20.8 °C
ΔTm at 10 µM [17]: 8.9 °C
ΔTm at 10 µM [18]: 1 °C
ΔTm at 10 µM [19]: 9.3 °C
ΔTm at 10 µM [20]: 9.6 °C
ΔTm at 10 µM [21]: 6.3 °C
ΔTm at 10 µM [22]: 6.7 °C
ΔTm at 10 µM [23]: 19 °C
ΔTm at 10 µM [24]: 12.7 °C
